# Data published in patent US9580395B2, “Compositions of dual thyrointegrin antagonists and use in vascular-associated disorders” (Vascular Vision Pharmaceutical Company, priority 2009, dated 2017).
# Legend:
# [1] = system: angiogenesis-induced by the growth factor basic fibroblast growth factor (FGF); experiment: Inhibition of FGF-induced angiogenesis in the chick chorioallantoic membrane (CAM) model; format: in vivo; details: Gallus gallus; for inhibition at 0.25 µg/mL: FGF + compound 0.25 μg/ml; for inhibition at 250 µg/mL: 10 μl at 0.25 mg/ml added to FGF impregnated filter
# Description: To investigate the structure-activity relationships of novel dual Thyrointegrin inhibitors of the present invention, the effect of each compound on angiogenesis-induced by the growth factor basic fibroblast growth factor (FGF) was assessed in the CAM model as depicted in Table 1.
# The data in Table 1 represents a mean±standard deviation (SD), n=8 as compared to FGF alone (p<0.001; 10 μl from the different test compounds were added to the FGF impregnated sterile filter).
# The CAM system is a widely-used model in which the chick embryonic membrane is exposed to stimulatory and inhibitory compounds. Ten day-old fertilized chicken eggs (Sunrise Farms Inc, Catskill, N.Y.) were incubated at 37° C. and 55% relative humidity. In the dark, with the help of a candling lamp, a small hole was punctured in the area of the shell covering the air sac using a hypodermic needle. A second hole was punctured on the wider side of the egg above an avascular area of the embryonic membrane. An artificial air sac was created below the second hole by gently applying a vacuum to the first hole using a small rubber squeeze bulb. The vacuum caused the separation of the CAM from the shell. A window of approximately 1.0 cm^2 was cut in the shell over the dropped CAM with the use of a mini drill. The underlying CAM was accessed through this small window. Filter disks were punched from filter paper #1 (Whatman International, Ltd, United Kingdom), and then soaked in 3.0 mg/mL cortisone acetate solution (in 95% ethanol) and air-dried under sterile conditions. To induce angiogenesis, sterile filter disks were saturated with FGF and placed on the CAM using sterile forceps. As a control, disks were saturated with PBS without calcium or magnesium. The window was sealed with Highland Brand transparent tape. After 1 hour, 10 μL of inhibitor were applied topically to the FGF-stimulated CAM. After 48 hours, CAM tissue directly beneath the filter disk was harvested and placed in a 35-mm petri dish for evaluation of angiogenesis. Eight eggs were used per treatment.
# Digital Imaging and analysis: CAMs in petri dishes were examined using a SV6 stereomicroscope (Carl Zeiss Microlmaging, Inc) at 50× magnification. Digital images were captured using a 3-CCD color video camera system (Toshiba America, Inc, New York, N.Y.). The images were analyzed using Image-Pro Plus (Media Cybernetics, Inc). The number of branch points within a circular region superimposed on the area of the filter disk was counted for each treatment condition.
# [2] = target: cell surface receptor αvβ3 (Homo sapiens, UniProt P05106+P06756); details: literature (Rebbaa et al. 2008); cited from earlier work
# cell surface receptor αvβ3, sequence (P06756 31-889 limits assumed): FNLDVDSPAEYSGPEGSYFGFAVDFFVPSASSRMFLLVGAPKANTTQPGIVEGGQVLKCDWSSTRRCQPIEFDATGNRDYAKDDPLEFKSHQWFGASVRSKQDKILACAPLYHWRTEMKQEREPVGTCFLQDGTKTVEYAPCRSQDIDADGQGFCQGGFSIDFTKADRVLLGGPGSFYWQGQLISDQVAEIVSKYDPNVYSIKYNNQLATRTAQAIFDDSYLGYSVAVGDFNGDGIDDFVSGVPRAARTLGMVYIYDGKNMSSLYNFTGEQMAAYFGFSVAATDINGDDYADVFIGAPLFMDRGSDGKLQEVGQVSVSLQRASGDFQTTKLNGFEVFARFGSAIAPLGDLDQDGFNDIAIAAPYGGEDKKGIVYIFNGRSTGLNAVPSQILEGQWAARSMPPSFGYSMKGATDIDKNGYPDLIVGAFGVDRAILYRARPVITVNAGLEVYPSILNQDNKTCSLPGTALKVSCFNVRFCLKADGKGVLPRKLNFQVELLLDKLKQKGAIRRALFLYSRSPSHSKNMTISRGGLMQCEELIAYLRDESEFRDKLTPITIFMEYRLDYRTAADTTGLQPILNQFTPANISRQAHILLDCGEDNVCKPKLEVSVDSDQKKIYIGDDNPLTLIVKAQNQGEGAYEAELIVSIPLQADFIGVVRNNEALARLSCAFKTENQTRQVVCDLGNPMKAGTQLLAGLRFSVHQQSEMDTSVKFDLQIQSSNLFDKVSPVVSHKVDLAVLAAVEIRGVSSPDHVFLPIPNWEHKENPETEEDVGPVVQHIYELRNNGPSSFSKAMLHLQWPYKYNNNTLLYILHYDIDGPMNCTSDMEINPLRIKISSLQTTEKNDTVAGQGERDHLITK
# cell surface receptor αvβ3, sequence (P06756 891-1048 partner limits assumed): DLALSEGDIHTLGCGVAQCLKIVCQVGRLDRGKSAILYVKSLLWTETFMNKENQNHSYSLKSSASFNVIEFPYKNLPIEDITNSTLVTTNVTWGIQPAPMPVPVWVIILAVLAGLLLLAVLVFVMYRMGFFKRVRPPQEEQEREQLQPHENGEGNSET
# cell surface receptor αvβ3, sequence (P05106 27-788): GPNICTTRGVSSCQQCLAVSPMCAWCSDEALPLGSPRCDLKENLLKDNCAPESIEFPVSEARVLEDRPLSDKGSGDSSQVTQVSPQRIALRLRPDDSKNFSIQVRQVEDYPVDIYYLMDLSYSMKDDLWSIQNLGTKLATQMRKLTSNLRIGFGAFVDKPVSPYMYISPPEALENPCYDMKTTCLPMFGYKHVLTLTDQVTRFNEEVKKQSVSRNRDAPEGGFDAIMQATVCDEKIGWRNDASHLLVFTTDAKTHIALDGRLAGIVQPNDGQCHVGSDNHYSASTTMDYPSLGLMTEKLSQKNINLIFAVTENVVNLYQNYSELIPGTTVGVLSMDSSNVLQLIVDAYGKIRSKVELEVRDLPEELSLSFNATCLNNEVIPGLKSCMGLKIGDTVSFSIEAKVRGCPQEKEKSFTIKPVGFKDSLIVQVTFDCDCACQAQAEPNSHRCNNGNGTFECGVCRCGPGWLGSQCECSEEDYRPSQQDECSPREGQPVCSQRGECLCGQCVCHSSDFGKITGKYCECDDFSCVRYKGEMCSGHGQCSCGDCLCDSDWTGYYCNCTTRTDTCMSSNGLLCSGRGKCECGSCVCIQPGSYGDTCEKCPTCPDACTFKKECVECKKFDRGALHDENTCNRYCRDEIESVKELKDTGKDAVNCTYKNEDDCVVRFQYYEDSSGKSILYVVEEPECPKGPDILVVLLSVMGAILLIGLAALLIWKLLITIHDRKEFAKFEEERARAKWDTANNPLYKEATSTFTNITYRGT
# αvβ3 = αvβ3 (Homo sapiens, UniProt P05106+P06756); experiment: Inhibition of αvβ3-mediated binding in a specific cell adhesion assay; format: cell-based; details: at 100 nM
# αvβ3, sequence (P06756 31-889 limits assumed): as the sequence (P06756 31-889 limits assumed) above
# αvβ3, sequence (P06756 891-1048 partner limits assumed): as the sequence (P06756 891-1048 partner limits assumed) above
# αvβ3, sequence (P05106 27-788): as the sequence (P05106 27-788) above
# [3] = 10 μl on FGF filter, mean ± SD, n=8, vs FGF alone
# [4] = post-ester hydrolysis to make the free acid
Compound,inhibition at 250 µg/mL [1] [%],inhibition at 0.1 µM (αvβ3) [%],"inhibition at 250 µg/mL [1, 4] [%]",inhibition at 0.1 µM (αvβ3; [4]) [%],other results
"O=C(O)Cc1cc(I)c(Oc2cc(I)c(O)c(I)c2)c(I)c1 [Tetrac, [4-(4-Hydroxy-3,5-diiodophenoxy)-3,5-diiodophenyl]acetic acid, reference compound]",,,,,"inhibition at 10 µg/mL ([1]; FGF + compound 10 μg/ml, 10 μl on FGF filter, mean ± SD, n=8, vs FGF alone): 85 ± 11%; affinity of binding to αvβ3 [2]: weak affinity"
"NC(N)=NCCOc1c(I)cc(Oc2c(I)cc(CC(=O)[O-])cc2I)cc1I.[Li+] [compound 21, Lithium [4-(4-{2-[(diaminomethylene)amino]ethoxy}-3,5-diiodophenoxy)-3,5-diiodophenyl]acetate]",,,,,"inhibition at 0.25 µg/mL [1, 3]: 75 ± 10%; melting point: 133 °C"
"NC(=O)NCCOc1c(I)cc(Oc2c(I)cc(CC(=O)O)cc2I)cc1I [compound 22, (4-{4-[2-(Carbamoylamino)ethoxy]-3,5-diiodophenoxy}-3,5-diiodophenyl)acetic acid]",,,,,"inhibition at 0.25 µg/mL [1, 3]: 74 ± 13%; melting point: 267 °C"
"NCCCOc1c(I)cc(Oc2c(I)cc(CC(=O)O)cc2I)cc1I [compound 23, {4-[4-(3-aminopropoxy)-3,5-diiodophenoxy]-3,5-diiodophenyl}acetic acid]",,,,,"inhibition at 0.25 µg/mL [1, 3]: 88 ± 11%"
CC(C)(C)OC(=O)NCCCOc1c(I)cc(Oc2c(I)cc(CC(=O)O)cc2I)cc1I [compound 30],75 ± 7,66 ± 8,,,
COC(=O)Cc1cc(I)c(Oc2cc(I)c(OCCCN)c(I)c2)c(I)c1 [compound 31],0,0,,,
NCCCOc1c(I)cc(Oc2c(I)cc(CC(=O)O)cc2I)cc1I [compound 32],,,88 ± 8,100,
COC(=O)Cc1cc(I)c(Oc2cc(I)c(OCCCNCc3cccnc3)c(I)c2)c(I)c1 [compound 33],0,0,,,
O=C(O)Cc1cc(I)c(Oc2cc(I)c(OCCCNCc3cccnc3)c(I)c2)c(I)c1 [compound 34],,,95 ± 11,68 ± 7,
COC(=O)Cc1cc(I)c(Oc2cc(I)c(OCCCN3CCSCC3)c(I)c2)c(I)c1 [compound 35],0,0,,,
O=C(O)Cc1cc(I)c(Oc2cc(I)c(OCCCN3CCSCC3)c(I)c2)c(I)c1 [compound 36],,,89 ± 10,93 ± 8,
CCN(CC)CCCOc1c(I)cc(Oc2c(I)cc(CC(=O)OC)cc2I)cc1I [compound 37],0,1,83,100,
